From US20240299591A1, “Antimicrobial Peptides and Their Use” (priority 2021, published 2024) come the findings set out here.

≈ marks a conversion by molar mass, not a printed value. Where a SMILES comes first, the peptide text is derived from it.

The test system of series [1] is A. fumigatus. Kind of series: Live cell imaging of A. fumigatus in co-cultures with A549. It counts as cell-based, Aspergillus fumigatus. As to conditions: 2.5 µM, 10 min after addition, 37° C. in RPMI.
Series [2] can be described thus: Viability of reconstructed cornea-like epithelium (eye irritation model). It counts as cell-based. As to conditions: human, reconstructed cornea-like epithelium (RhCE, EpiOcular™). As for the experimental part: (§1) FIG. 4a is a graph of the viability reconstructed cornea-like epithelium (RhCE, EpiOcular™) after incubation with MFIGA001. NC=Negative Control; PC=Positive Control. FIG. 4b is a graph of the viability reconstructed cornea-like epithelium (RhCE, EpiOcular™) after incubation with 10 µM of MFIGA001a and MFIGAF001b. NC=Negative Control; PC=Positive Control; A2=MFIGAF001a; and B1=MFIGAF001b.
(§2) MFIGAF001 was also assessed independently by a CRO (Evotec) in an OECD compliant reconstructed cornea-like epithelial cell model (RhCE, EpiOcular™).

In series [3] the test system is reconstructed cornea-like epithelium (RhCE, EpiOcular™). The description is as above. It is filed as cell-based. As for the experimental part:
as §1, §2

Series [4] deals with F. oxysporum. Put plainly: Minimum inhibitory concentration, F. oxysporum. It is filed as cell-based, Fusarium oxysporum. As to conditions: 5 × 10^5, 10% Vogel's. The procedure: F. oxysporum was grown in liquid potato dextrose broth (PDB) at 28° C. with shaking (170 rpm) for 5 days. The suspension was filtered through folded Miracloth (4 layers) and centrifuged for 10 min at RT. The supernatant was discard and the pellet was resuspend in 1.5 mL of sterile dH2O and quantified.

Series [5] deals with S. aureus. It is filed as cell-based, Staphylococcus aureus. As for the experimental part:
Bacteria strains used were grown on Lysogeny Broth (LB) agar at 37° C. for 1 day, and were harvest using sterile inoculation loop by taking a single colony and resuspending in PBST. The concentration of cells was quantified using a haemocytometer. For the determination of the minimum inhibitory concentration, cell density was adjusted to 10^8 cells/mL with 20% liquid LB medium.

Series [6] has as its system Aspergillus fumigatus. It is filed as cell-based. As for the experimental part: The assays were performed using Nunc 262162 U96 polystyrene round bottomed clear plates (www.nuncbrand.com).
(§3) When testing the peptides against A. fumigatus, peptides at different concentrations were mixed with A. fumigatus conidia to reach a final volume of 100 μL per well. The final conidial concentration was 5×10^5 cells/mL in 10% Vogel's medium. After 24 h of incubation at 37° C. in 96 well plates, fungal growth with the different peptide concentrations was determined by measurement of the optical density at 610 nm in a TriStar LB 941 Multimode Microplate Reader. The IC50 values were determined using four parameter logistic regression formula provided by Sigma Plot 10.0. Values are represented as means±SEM from two independent experiments (n=3).
(§4) The IC50 of the fluorescently labelled peptides cannot be accurately determined using the optical density method described in the last section. This is because the fluorophore structures absorbed light at 610 nm which was the wavelength used for the optical density measurements. In order to overcome this, the BacTiter-Glo™ Microbial Cell Viability Assay kit purchased from Promega was used. The BacTiter-Glo™ Reagent relies on the properties of a proprietary thermostable luciferase (Ultra-Glo™ Recombinant Luciferase) and a proprietary formulation for extracting ATP from fungal cells which will generates a ‘glow-type’ luminescent signal. This is produced by the luciferase reaction shown in Scheme 1, which has a signal half-life of over 30 min depending on the experimental conditions. The luminescent signal is proportional to the amount of ATP present, which is directly proportional to the number of living cells in culture.
(§5) The IC50 assays for all fluorescently labelled peptides were performed using Greiner CELLSTAR white polystyrene wells flat bottomed 96 well plates. The incubation conditions remained the same for the optical density measurement described in the previous section. Once the incubation procedure was finished, the plate was equilibrated to room temperature. A mixture of BacTiter-Glo™ buffer and substrate was then added to the plate (100 μL per well). The plate was shaken for 5 min and read using the Tristar […] luminometer. Data analysis was performed using Sigma Plot 10.0. All values shown are presented as means±SEM from two independent experiments (n=3).

For series [7], the system named is A. fumigatus (MFIG001). Put plainly: Minimum inhibitory concentration, A. fumigatus. The following applies: 5 × 10^5, 10% Vogel's. It counts as cell-based, Aspergillus fumigatus. As for the experimental part: Aspergillus fumigatus strains were grown on Sabouraud dextrose agar (SAB agar) at 37° C. for 3 days. Conidia were collected in phosphate-buffered saline supplemented with 0.1% tween-20 (PBST) by gently scraping a spatula over the fungal colony surface. The spore solutions were then passed through autoclaved Miracloth to remove any hyphal residues and stored at 4° C. The spores were counted and the concentrations was determined in the same was as described for N. crassa.

The subject of series [8] is Fusarium oxysporum. It counts as cell-based. As to conditions: 24 h. The procedure:
Dose dependent inhibition of fungal growth by all non-labelled peptides (indicated by IC50 values) was determined via this methodology. The assays were performed using Nunc 262162 U96 polystyrene round bottomed clear plates (www.nuncbrand.com).
as §3
When testing the peptides against N. crassa and F. oxysporum, experiments were carried as described above apart from the incubation temperature was changed to 25° C. for N. crassa and 35° C. for F. oxysporum.
as §4, §5

For `N=C(N)NCCC[C@@H]1NC(=O)CNC(=O)[C@H](Cc2c[nH]c3ccccc23)NC(=O)[C@H](Cc2ccccc2)NC(=O)[C@H](Cc2c[nH]c3ccccc23)NC(=O)[C@@H](Cc2ccccc2)NC(=O)[C@H](CCCCN)NC(=O)[C@H](CCCCN)NC1=O` [MFIGAF001, Cyclo(Arg-Lys-Lys-phe-Trp-Phe-Trp-Gly)] (HELM PEPTIDE1{F.W.G.R.K.K.[dF].W}$PEPTIDE1,PEPTIDE1,1:R1-8:R2$$$V2.0), the “Selective labelling of A. fumigatus over A549” value in series [1] is on record as “selectively labels A. fumigatus”. Also, in series [2], the viability at 100 µg/mL turned out to be 87.3%, the viability at 200 µg/mL amounted to 87.2%, the viability at 400 µg/mL is 88.6% and the viability at 500 µg/mL amounted to 93.7%. Moreover, in series [3], the “Toxicity, reconstructed cornea-like epithelium (FIG. 4)” value is “no obvious toxicity”. Besides, in series [4], the MIC turned out to be 6.25 µM (≈ 7.1 µg/mL). In series [5], the “Antibacterial activity against Staphylococcus aureus” value is given as “Antibacterial activity” and the MIC was 15.6 µM (≈ 17.7 µg/mL). The “IC50 Aspergillus fumigatus” value in series [6] (24 h) was determined as 1.4 µg/mL (≈ 1.23 µM). Further, the “IC99 Aspergillus fumigatus” value in series [6] (Conidia (10% Vogel's), 37° C., 24 h) is on record as 5.7 mg/L. Also, the “IC50 value against major pathogenic fungi (in words)” value in series [6] (various fungi, including Aspergillus fumigatus and Fusarium oxysporum) is “sub-micromolar”. This compound also yielded an MIC in series [7] of 5 µM (≈ 5.68 µg/mL). Moreover, the “IC50 Fusarium oxysporum” value in series [8] amounted to 1.9 µg/mL (≈ 1.67 µM).
